biological target: Human immunodeficiency virus type 1 protease (Human immunodeficiency virus 1, UniProt Q72874); assay: Inhibitory activity against HIV-1 protease

Structure (SMILES) | IC50 [nM]
Cc1cc(O)c(C)c(C(=O)N[C@@H](Cc2ccccc2)[C@H](O)C(=O)N2C[C@@H](Cl)C[C@H]2C(=O)NC(C)(C)C)c1 | 1.3
COc1cccc(C(=O)N[C@@H](Cc2ccccc2)[C@H](O)C(=O)N2C[C@@H](Cl)C[C@H]2C(=O)NC(C)(C)C)c1O | 1000
Cc1c(O)cccc1C(=O)N[C@@H](Cc1ccccc1)[C@H](O)C(=O)N1C[C@@H](Cl)C[C@H]1C(=O)NC(C)(C)C | 0.8
CC(C)(C)NC(=O)[C@@H]1C[C@H](Cl)CN1C(=O)[C@@H](O)[C@H](Cc1ccccc1)NC(=O)c1cccc(O)c1Br | 1.5
Cc1cc(O)c(C)c(C(=O)N[C@@H](Cc2cc(F)cc(F)c2)[C@H](O)C(=O)N2C[C@@H](Cl)C[C@H]2C(=O)NC(C)(C)C)c1 | 1.2
Cc1c(O)cc(F)cc1C(=O)N[C@@H](Cc1cccc(C(F)(F)F)c1)[C@H](O)C(=O)N1C[C@@H](Cl)C[C@H]1C(=O)NC(C)(C)C | 2.1
Cc1ccc(C(=O)N[C@@H](Cc2cccc(C(F)(F)F)c2)[C@H](O)C(=O)N2C[C@@H](Cl)C[C@H]2C(=O)NC(C)(C)C)c(C)c1O | 3.5
Cc1ccc(O)c(C)c1C(=O)N[C@@H](Cc1ccc(C(F)(F)F)cc1)[C@H](O)C(=O)N1C[C@@H](Cl)C[C@H]1C(=O)NC(C)(C)C | 3.9
Cc1ccc(O)c(C)c1C(=O)N[C@@H](Cc1ccccc1)[C@H](O)C(=O)N1C[C@@H](Cl)C[C@H]1C(=O)NC(C)(C)C | 2.5
Cc1cc(O)c(C)c(C(=O)N[C@@H](Cc2ccc3ccccc3c2)[C@H](O)C(=O)N2C[C@@H](Cl)C[C@H]2C(=O)NC(C)(C)C)c1 | 0.8
Cc1ccc(C[C@H](NC(=O)c2ccc(C)c(O)c2C)[C@H](O)C(=O)N2C[C@@H](Cl)C[C@H]2C(=O)NC(C)(C)C)cc1 | 8.6
Cc1cc(O)c(C)c(C(=O)N[C@@H](Cc2cccc(C(F)(F)F)c2)[C@H](O)C(=O)N2C[C@@H](Cl)C[C@H]2C(=O)NC(C)(C)C)c1 | 1.9
CC(C)(C)NC(=O)[C@@H]1C[C@H](Cl)CN1C(=O)[C@@H](O)[C@H](Cc1ccccc1)NC(=O)c1ccccc1O | 1000
Cc1ccc(C(=O)N[C@@H](Cc2ccc3ccccc3c2)[C@H](O)C(=O)N2C[C@@H](Cl)C[C@H]2C(=O)NC(C)(C)C)c(C)c1O | 3.2
Cc1cccc(C[C@H](NC(=O)c2ccc(C)c(O)c2C)[C@H](O)C(=O)N2C[C@@H](Cl)C[C@H]2C(=O)NC(C)(C)C)c1 | 2.5
Cc1ccc(C(=O)N[C@@H](Cc2ccc(C(F)(F)F)cc2)[C@H](O)C(=O)N2C[C@@H](Cl)C[C@H]2C(=O)NC(C)(C)C)c(C)c1O | 6.3
CC(C)(C)NC(=O)[C@@H]1C[C@H](Cl)CN1C(=O)[C@@H](O)[C@H](Cc1ccccc1)NC(=O)c1ccccc1Cl | 11
Cc1ccccc1C[C@H](NC(=O)c1ccc(C)c(O)c1C)[C@H](O)C(=O)N1C[C@@H](Cl)C[C@H]1C(=O)NC(C)(C)C | 49.9

Structure (SMILES) | IC50 [nM]
Cc1cccc(C)c1C(=O)N[C@@H](Cc1ccccc1)[C@H](O)C(=O)N1C[C@@H](Cl)C[C@H]1C(=O)NC(C)(C)C | 3.6
CC(C)(C)NC(=O)[C@@H]1C[C@H](Cl)CN1C(=O)[C@@H](O)[C@H](Cc1ccccc1)NC(=O)c1ccccc1 | 26
Cc1ccc(C(=O)N[C@@H](Cc2ccccc2)[C@H](O)C(=O)N2C[C@@H](Cl)C[C@H]2C(=O)NC(C)(C)C)c(C)c1O | 8.2
Cc1ccc(O)c(C)c1C(=O)N[C@@H](Cc1ccc2ccccc2c1)[C@H](O)C(=O)N1C[C@@H](Cl)C[C@H]1C(=O)NC(C)(C)C | 2.8
CC(C)(C)NC(=O)[C@@H]1C[C@H](Cl)CN1C(=O)[C@@H](O)[C@H](Cc1ccccc1)NC(=O)c1ccc(O)cc1 | 33
CC(C)(C)NC(=O)[C@@H]1C[C@H](Cl)CN1C(=O)[C@@H](O)[C@H](Cc1ccccc1)NC(=O)c1ccccc1N | 39
Cc1c(N)cccc1C(=O)N[C@@H](Cc1ccccc1)[C@H](O)C(=O)N1C[C@@H](Cl)C[C@H]1C(=O)NC(C)(C)C | 5.4
Cc1ccc(C[C@H](NC(=O)c2c(C)ccc(O)c2C)[C@H](O)C(=O)N2C[C@@H](Cl)C[C@H]2C(=O)NC(C)(C)C)cc1 | 3.6
Cc1c(O)cc(F)cc1C(=O)N[C@@H](Cc1ccccc1)[C@H](O)C(=O)N1C[C@@H](Cl)C[C@H]1C(=O)NC(C)(C)C | 1.7
Cc1ccc(O)c(C)c1C(=O)N[C@@H](Cc1cccc(C(F)(F)F)c1)[C@H](O)C(=O)N1C[C@@H](Cl)C[C@H]1C(=O)NC(C)(C)C | 4.6
CC(C)(C)NC(=O)[C@@H]1C[C@H](Cl)CN1C(=O)[C@@H](O)[C@H](Cc1ccccc1)NC(=O)c1ccccc1Br | 12
CC(C)(C)NC(=O)[C@@H]1C[C@H](Cl)CN1C(=O)[C@@H](O)[C@H](Cc1ccccc1)NC(=O)c1cccc(O)c1 | 9
Cc1cccc(C[C@H](NC(=O)c2c(C)ccc(O)c2C)[C@H](O)C(=O)N2C[C@@H](Cl)C[C@H]2C(=O)NC(C)(C)C)c1 | 3.4
Cc1cccc(C[C@H](NC(=O)c2cc(C)cc(O)c2C)[C@H](O)C(=O)N2C[C@@H](Cl)C[C@H]2C(=O)NC(C)(C)C)c1 | 1.3
Cc1ccccc1C[C@H](NC(=O)c1c(C)ccc(O)c1C)[C@H](O)C(=O)N1C[C@@H](Cl)C[C@H]1C(=O)NC(C)(C)C | 34.3
CC(C)(C)NC(=O)[C@@H]1C[C@H](Cl)CN1C(=O)[C@@H](O)[C@H](Cc1ccccc1)NC(=O)c1ccccc1I | 14
Cc1c(O)cc(F)cc1C(=O)N[C@@H](Cc1ccc2ccccc2c1)[C@H](O)C(=O)N1C[C@@H](Cl)C[C@H]1C(=O)NC(C)(C)C | 1.2
Cc1cc(O)c(C)c(C(=O)N[C@@H](Cc2ccc(-c3ccccc3)cc2)[C@H](O)C(=O)N2C[C@@H](Cl)C[C@H]2C(=O)NC(C)(C)C)c1 | 1.3

— ChEMBL document CHEMBL1135444, “Elucidating the inhibiting mode of AHPBA derivatives against HIV-1 protease and building predictive 3D-QSAR models” (J Med Chem, 2002)
